Data taken from patent US20190374601A1, “METHODS FOR TREATING FUNGAL INFECTIONS” (priority 2017, published 2019).
Marks after values point to notes of the source that are not given here.

Tests used:
Assay type in all cases: in vivo
T. mentagrophytes [1] = assay: Clinical evaluation of infected skin, T. mentagrophytes dermatophytosis guinea pig model, different doses once weekly, Example 2; details: 10 mg/kg PO days 1 and 8, evaluated study day 12, relative to vehicle control
Experimental: (§1) Procedures for animal care and use, preparation of standard inoculum, and infection of the animals were carried out following the same steps as described in Example 1.
(§2) Infected guinea pigs were randomized into the following (1)-(5) groups (10 per group) (see Table 4): (1) a vehicle control (water+mannitol); (2) terbinafine 10 mg/kg PO days 1 and 8, as a positive control; (3) CD101 10 mg/kg SQ days 1 and 8; (4) CD101 20 mg/kg SQ days 1 and 8; and (5) CD101 40 mg/kg SQ days 1 and 8.
(§3) Animals were treated with CD101 SQ or PO (for terbinafine) once a week on days 1 and 8.
(§4) Study Day 1: Infect the animals with T. mentagrophytes and begin treatments.
(§5) Study Day 8: Last treatment.
(§6) Study Day 12: Clinical evaluation of the four quadrants in the marked area is done. Hair samples were obtained from each quadrant. Hairs (10 per quadrant) were planted in Potato Dextrose Agar, and incubated for 48 h for mycological evaluation. Procedures for clinical and mycological evaluations are described below.
(§7) The compounds was administered SQ or PO (0.3 mL/kg […]).
(§8) Clinical assessment of local changes of the infected skin area was scored as follows:
(§9) 1=Few slightly erythematous places on the skin
(§10) 2=Well-defined redness, swelling with bristling hairs.
(§11) 3=Large areas or marked redness incrustation, scaling, bald patches, ulcerated in places.
(§12) 4=Partial damage to the integument and loss of hair
(§13) 5=Extensive damage to the integument and complete loss of hair at the site of infection.
Any other local skin reactions were noted. The assessment of clinical evaluation in the change of scores per treatment group was expressed as percentage relative to the untreated control group of animals using the following formula:
where T=Scores in the test group. K=Scores in the untreated control

[2] = test system: T. mentagrophytes ATCC 24953; assay: Hair root invasion test (mycological evaluation), T. mentagrophytes dermatophytosis guinea pig model, Example 1; details: evaluated study day 10, relative to vehicle control
Experimental: (§14) A request was made to the Animal Resource Center (ARC) at Case Western Reserve University to order the required number of male albino Harlan-Sprague-Dawley Guinea-Pigs (San Diego, Calif.) with a body weight of 450-500 g. Animals were allowed to acclimate for a minimum of 5 days prior to use. Environmental controls for the animal room were set to maintain a temperature of 16 to 22° C., a relative humidity of 30-70%, and a 12:12 light-dark cycle.
(§15) T. mentagrophytes ATCC 24953 was used as the infecting fungus. This strain was selected because it can cause skin infection and results in inflammatory reaction.
(§16) T. mentagrophytes (from frozen stock) was sub-cultured on Potato Dextrose Agar plates and incubated at 30° C. for 5-7 days. The colonies were scraped from the plates using sterile normal saline (NaCl 0.85%) solution. After washing for three times with sterile saline the conidia were re-suspended in the same solution. Ten-fold dilutions of conidia suspension were prepared and counted using a hemacytometer. Working suspension of conidia was prepared at a final concentration of 1×10^7 Colony Forming Units (CFUs)/100 μL in normal saline.
(§17) Each animal was anesthetized with a cocktail of xylazine and ketamine: 0.2 mL intramuscularly. Using an electric shaver, hair was clipped on left side of the guinea pig back. A closer shave was done with a disposable razor. Using a stencil, a square of 2.5 cm×2.5 cm was marked. The marked skin area was abraded with sterile fine grit sandpaper. A cell suspension containing 1×10^7 conidia in 100 μL was applied and rubbed thoroughly on the abraded skin.
(§18) Beginning two hours post inoculation, animals were treated subcutaneously (SQ) for CD101 and orally (PO) terbinafine once daily for a period of nine days, or once a week on days 1 and 8.
(§19) Study Day 1: Infected the animals with T. mentagrophytes and begin treatments.
(§20) Study Day 9 (treatment day 9): End treatments.
as §6, with “10:” for “12:”, “was” for “is”, “quadrant” for “quadrant. Hairs”, “quadrant). Hairs” for “quadrant)”
(§21) CD101 was administered SQ in 0.3 mL, while the terbinafine was given orally in 0.3 mL. Vehicle treated group was also included.
(§22) Hair samples were removed with a sterile forceps from four quadrants. Ten hair samples from each quadrant were inoculated onto the corresponding quadrant on the Potato Dextrose agar plate and incubated at 30° C. for 2 days. The fungal growth at the hair root was examined under a stereomicroscope. The effectiveness of a compound in reducing the number of mycologically positive hair sample per treated group is expressed as percentage relative to the vehicle control group of animals using the following formula:
where, T=Positive hair in the test group, K=Positive hair in the Untreated control.

[3] = test system: T. mentagrophytes ATCC 24953; assay: Clinical evaluation of infected skin, T. mentagrophytes dermatophytosis guinea pig model, Example 1; details: evaluated study day 10, relative to vehicle control
Experimental: as §14, §15, §16, §17, §18, §19, §20
as §6, with “10:” for “12:”, “was” for “is”, “quadrant” for “quadrant. Hairs”, “quadrant). Hairs” for “quadrant)”
as §21, §8, §9, §10, §11, §12, §13
Any other local skin reactions were noted. The assessment of clinical evaluation in the change of scores per treatment group is expressed as percentage relative to the vehicle control group of animals using the following formula:
where, T=Scores in the test group. K=Scores in the untreated control

T. mentagrophytes [4] = assay: Hair root invasion test (mycological evaluation), T. mentagrophytes dermatophytosis guinea pig model, different doses once weekly, Example 2; details: 10 mg/kg PO days 1 and 8, evaluated study day 12, relative to vehicle control
Experimental: as §1, §2, §3, §4, §5, §6, §7
as §22, with “with” for “with a”, “was” for “is”, “untreated” for “vehicle”
where T=Positive hair in the test group, K=Positive hair in the Untreated control.

[5] = 10 mg/kg PO daily for nine days
[6] = 10 mg/kg PO daily for nine days, listed as terbinafine
[7] = 10 mg/kg PO once a week (days 1 and 8)
[8] = 10 mg/kg PO once a week (days 1 and 8), listed as terbinafine

SMILES: CN(C/C=C/C#CC(C)(C)C)Cc1cccc2ccccc12 [Terbinafine, terbinafine, reference compound]
- Percent Efficacy Clinical (T. mentagrophytes [1]): 76.8* %
- Percent Efficacy Clinical (T. mentagrophytes [1]; listed as terbinafine): 76.8%
- Percent Efficacy Mycological [2, 5]: 91.6* %
- Percent Efficacy Mycological [2, 6]: 91.6%
- Percent Efficacy Mycological [2, 7]: 83.1* %
- Percent Efficacy Mycological [2, 8]: 83.1%
- Percent Efficacy Clinical [3, 5]: 78.7* %
- Percent Efficacy Clinical [3, 6]: 78.7%
- Percent Efficacy Clinical [3, 7]: 60.6* %
- Percent Efficacy Clinical [3, 8]: 60.6%
- Percent Efficacy Mycological (T. mentagrophytes [4]): 54.2* %
- Percent Efficacy Mycological (T. mentagrophytes [4]; listed as terbinafine): 54.2%
